# Experiment: Oral bioavailability in cynomolgus monkey
# Assay type: ADME, organism-based, Macaca fascicularis
# Details: in vivo
smiles,measurement,value
CC(C)[C@@H](CS(=O)(=O)C(C)C)N1C(=O)[C@@](C)(CC(=O)O)C[C@H](c2cccc(Cl)c2)[C@H]1c1ccc(Cl)cc1 [NAVTEMADLIN],bioavailability,51%

# — ChEMBL document CHEMBL3124826, “Discovery of AMG 232, a potent, selective, and orally bioavailable MDM2-p53 inhibitor in clinical development” (J Med Chem, 2014)
